Where two headings read alike, the source gives them in different places.
Columns and labels:
[1] = Plasma free fraction (fu) and unbound Cmax (Cmax,u); assay type: in vitro ADME, human; conditions: unbound plasma Cmax
PHH liver spheroid = system: PHH liver spheroid; set-up: method as in Foster et al. 2019; conditions: liver-chip of comparable sensitivity, ref Foster et al. 2019; cited from earlier work
HepG2 = system: HepG2; set-up: method as in Albrecht 2019; conditions: In vitro Assay; ref Albrecht 2019; cited from earlier work
[2] = cited from earlier work
HepG2 cells [3] = conditions: cited from earlier work
HepG2 cells [4] = conditions: cited from earlier work; remark: listed apart in the source
HepG2 cells [5] = conditions: cited from earlier work; remark: listed apart in the source
PHH [6] = conditions: cited from earlier work
hLiMTs [7] = conditions: cited from earlier work
PHH spheroids = conditions: In vitro Assay; ref Vorrink 2018; cited from earlier work
[8] = system: HepG2 C3A spheroid, BSEP, Glu/Gal in HepG2 cells, bioactivation; conditions: cited from earlier work
[9] = cited from earlier work; remark: listed apart in the source
[10] = plasma free fraction; cited from earlier work
[11] = cited from earlier work; remark: listed apart in the source
PHH [12] = conditions: In vitro Assay; ref Albrecht 2019; cited from earlier work
HepaRG cells = conditions: HepaRG cells, BMCs in relation to 10 × human Cmax.tot; ref National Toxicology Program; cited from earlier work
[13] = system: THLE-Null and THLE-3A4 cells; conditions: In vitro Assay; ref Gustafsson 2014; cited from earlier work
[14] = system: isolated mouse liver mitochondria; conditions: In vitro Assay; ref Porceddu 2012; cited from earlier work
rBsep = conditions: In vitro Assay; ref Dawson 2012; cited from earlier work
hLiMTs [15] = experiment: Combined HCI (HCS) and cellular ATP 3D assay in hLiMTs; conditions: for AC50 / minimal effective concentration: Homo sapiens
HepaRG spheroids = experiment: Combined HCI (HCS) and cellular ATP 3D assay in HepaRG spheroids; conditions: for AC50 / minimal effective concentration: Homo sapiens
[16] = In vitro Assay, ref Proctor 2017
[17] = Microtissue model structural based (HCI), combined HCS and ATP, MEC < 25 × Cmax.tot cut-off

CC(=O)Nc1ccc(O)cc1 [acetaminophen]
Human plasma Cmax,u [1]: 139.840 µM | detection in 3D microtissues (PHH liver spheroid): detected | Cytotoxicity HepG2 48 hrs (HepG2): +VE | DILI severity category (Chen et al. [2016]) ([2]; LTKB DILIrank category, ref Chen et al. 2016): Most | DILI severity category ([2]; human DILI severity, ref Chen et al.): Most | DILI +VE (5-8), DILI -VE (-4) ([2]; ref Chen 2016): +VE | DILI severity category ([2]; ref Chen 2016): vMost-DILI-Concern | Structural based (HCI) (HepG2 cells [3]; In vitro Assay, ref O'Brien 2006): +VE | DILI in vitro assay prediction, O'Brien (2006) (HepG2 cells [3]; Structural based (HCI), HepG2, ref O'Brien et al. 2006): +VE (lowest HCI endpoint IC50 (or in the absence of dose–response < 100 µM) < 30 × total human plasma exposure levels (Cmax.tot)) | Structural based (HCI) (HepG2 cells [4]; In vitro Assay, ref Persson 2013): -VE | DILI in vitro assay prediction, Persson (2013) (HepG2 cells [4]; Structural based (HCI), HepG2, ref Persson et al. 2013): -VE | Structural based (HCI) (HepG2 cells [5]; In vitro Assay, ref Tolosa 2012): +VE | DILI in vitro assay prediction, Tolosa (2012) (HepG2 cells [5]; Structural based (HCI), HepG2, ref Tolosa et al. 2012): +VE | PHH/100uM, Proctor (2017) (PHH [6]; 2D PHH, ATP, IC50 threshold 100 µM, ref Proctor et al. 2017): -VE | PHH ATP <100uM (PHH [6]; [16]): +VE (IC50 threshold of 100 µM) | hLiMTs ATP <100uM (hLiMTs [7]; [16]): -VE | hLiMTs/100uM, Proctor (2017) (hLiMTs [7]; hLiMTs, ATP, IC50 threshold 100 µM, ref Proctor et al. 2017): -VE | hLiMTs ATP <20 x Cmax (PHH spheroids): +VE (IC20 < 20 × Cmax.tot cut-off) | Bayesian Machine Learning DILI prediction, Williams (2019) ([8]; Bayesian modeling, ref Williams et al. 2019): +VE | Bayesian Machine Learning ([8]; In vitro Assay, ref Williams 2019): +VE | Cmax ([9]; read-out: Cmax.tot, value used by Albrecht, ref Albrecht et al. 2019): 109 µM | Cmax ([9]; read-out: Human plasma Cmax, total plasma Cmax.tot, median of 9 literature references): 152 µM | fu [10]: 0.920 | Assigned DILI category ([11]; Chen et al. 2016 or literature alignment, ref Chen et al. 2016): 3 | In vivo DILI ([11]; […]): +VE | In vivo DILI ([11]; ref Albrecht 2019): +VE | In vivo DILI ([11]; ref Dawson 2012): +VE | In vivo DILI ([11]; ref Garside 2014): +VE | In vivo DILI ([11]; ref Gustafsson 2014): +VE | In vivo DILI ([11]; ref O'Brien 2006): +VE | In vivo DILI ([11]; ref Persson 2013): +VE | In vivo DILI ([11]; ref Porceddu 2012): +VE | In vivo DILI ([11]; ref Proctor 2017): +VE | In vivo DILI ([11]; ref Schadt 2015): +VE | In vivo DILI ([11]; ref Tolosa 2012): +VE | In vivo DILI ([11]; ref Vorrink 2018): +VE | In vivo DILI ([11]; ref Williams 2019): +VE | In vivo DILI ([11]; ref Xu 2008): +VE | Cytotoxicity PHH 48 hrs (PHH [12]): +VE | DILI identification by high-throughput transcriptomics (HepaRG cells): identified | THLE-Null [13]: -VE | in vitro data EC2<=1x Cmax [14]: +VE | in vitro data EC20<=2uM [14]: -VE | Inhibition of rBsep cutoff<1& cmax u>.2 (rBsep): -VE | Inhibition of rBsep cutoff<3 (rBsep): -VE | AC50 (hLiMTs [15]; read-out: ATP endpoint AC50): 1240 µM | minimal effective concentration (hLiMTs [15]; read-out: ATP endpoint MEC): 292 µM | AC50 (hLiMTs [15]; read-out: HCS endpoint AC50): 4340 µM | minimal effective concentration (hLiMTs [15]; read-out: HCS endpoint MEC): 456 µM | DILI prediction hLiMTs (HCS-MEC) (hLiMTs [15]; [17]): +VE (MEC < 25 × Cmax.tot cut-off) | hLiMTs <25x Avg Cmax ATP (hLiMTs [15]; hLiMTs, ATP endpoint, cut-off <25x Avg Cmax): +ve | hLiMTs <100x Avg Cmaxu ATP (hLiMTs [15]; hLiMTs, ATP endpoint, cut-off <100x Avg Cmaxu): +ve (<100x Avg Cmaxu) | hLiMTs <25x Avg Cmax HCS (hLiMTs [15]; hLiMTs, HCS endpoints, cut-off <25x Avg Cmax): +ve | hLiMTs <100x Avg Cmaxu HCS (hLiMTs [15]; hLiMTs, HCS endpoints, cut-off <100x Avg Cmaxu): +ve (<100x Avg Cmaxu) | hLiMTs <25x Avg Cmax All (hLiMTs [15]; hLiMTs, all endpoints (ATP and HCS), cut-off <25x Avg Cmax): +ve | hLiMTs Cmax max All (hLiMTs [15]; hLiMTs, all endpoints, Cmax max used): +ve | hLiMTs Cmax min All (hLiMTs [15]; hLiMTs, all endpoints, Cmax min used): +ve | hLiMTs <10 uM All (hLiMTs [15]; hLiMTs, all endpoints, cut-off <10 uM): -ve | hLiMTs <100x Avg Cmaxu All (hLiMTs [15]; hLiMTs, all endpoints, cut-off <100x Avg Cmaxu): +ve (<100x Avg Cmaxu) | HepaRG <25x Avg Cmax ATP (HepaRG spheroids; HepaRG, ATP endpoint, cut-off <25x Avg Cmax): +ve | HepaRG <100x Avg Cmaxu ATP (HepaRG spheroids; HepaRG, ATP endpoint, cut-off <100x Avg Cmaxu): +ve (<100x Avg Cmaxu) | HepaRG <25x Avg Cmax HCS (HepaRG spheroids; HepaRG, HCS endpoints, cut-off <25x Avg Cmax): +ve | HepaRG <100x Avg Cmaxu HCS (HepaRG spheroids; HepaRG, HCS endpoints, cut-off <100x Avg Cmaxu): +ve (<100x Avg Cmaxu) | HepaRG <25x Avg Cmax All (HepaRG spheroids; HepaRG, all endpoints (ATP and HCS), cut-off <25x Avg Cmax): +ve | HepaRG Cmax max All (HepaRG spheroids; HepaRG, all endpoints, Cmax max used): +ve | HepaRG Cmax min All (HepaRG spheroids; HepaRG, all endpoints, Cmax min used): +ve | HepaRG <10 uM All (HepaRG spheroids; HepaRG, all endpoints, cut-off <10 uM): -ve | HepaRG <100x Avg Cmaxu All (HepaRG spheroids; HepaRG, all endpoints, cut-off <100x Avg Cmaxu): +ve (<100x Avg Cmaxu) | AC50 (HepaRG spheroids; HepaRG, read-out: ATP endpoint AC50): 760 µM | minimal effective concentration (HepaRG spheroids; HepaRG, read-out: ATP endpoint MEC): 187 µM | AC50 (HepaRG spheroids; HepaRG, read-out: HCS endpoint AC50): 3100 µM | minimal effective concentration (HepaRG spheroids; HepaRG, read-out: HCS endpoint MEC): 656 µM | DILI prediction HepaRG spheroids (HCS-MEC) (HepaRG spheroids; [17]): +VE (MEC < 25 × Cmax.tot cut-off)

From PMC7395068, “The evolution of strategies to minimise the risk of human drug-induced liver injury (DILI) in drug discovery and development” (Archives of Toxicology, 2020)
